# Measurements taken from PMC10687071 (The Journal of Biological Chemistry, 2023).
# Several values for one entry are separate records, joined by “and”; a condition that tells them apart may be missing. Identical values can stand only once.
# How the values were obtained:
# [1] = target: T1, PAS domain of EAG1 channels (Mus musculus, UniProt Q60603); assay: Surface plasmon resonance, PAS domain immobilized on CM5 chip; format: binding; settings: imipramine 1, 10 and 30 μM; concentration-dependent increase in SPR response; affinity not determined
# T1 construct: DNA encoding PAS (residues 7–136) of mouse EAG1 channels (GI # Q60603); 6-His (N); TEV protease cleavage site (N); made in house; host or cells: BL21 (DE3) Escherichia coli
# T1 sequence (Q60603 7-136): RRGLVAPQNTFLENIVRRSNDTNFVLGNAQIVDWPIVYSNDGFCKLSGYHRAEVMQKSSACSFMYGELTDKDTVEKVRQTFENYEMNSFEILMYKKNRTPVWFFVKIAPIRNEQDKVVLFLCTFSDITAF
# Protocol: DNA encoding PAS (residues 7–136) of mouse EAG1 channels (GI # Q60603) was synthesized by BioBasic and subcloned into pETM11 bacterial expression vector containing an N-terminal 6-His affinity tag followed by a tobacco etch virus (TEV) protease cleavage site. The DNA sequences were verified by sequencing (Genewiz). The PAS domains were expressed in BL21 (DE3) Escherichia coli cells as previously described ([25], [63]). The cells were grown at 37 °C to an optical density at 600 nm of 0.6 to 0.8, induced with IPTG at 18 °C overnight and harvested by centrifugation. The cells were resuspended in 150 mM KCl, 1 mM TCEP, 1 mM ABSF, 2.5 mg/ml DNaseI and 30 mM HEPES, pH 7.5. Cells were lysed with an Emulsiflex-C5 (Avestin). Insoluble protein was separated by centrifugation in 45 Ti rotor at 30,000 rpm for 1 h at 4 °C. The PAS domains were purified by Ni^2+ affinity chromatography using HisTrap HP column (Cytiva) and eluted on a linear gradient to 500 mM imidazole. The protein was further purified on a Superdex 200 Increase 10/300 column (Cytiva) equilibrated with 150 mM KCl, 1 mM TCEP, 10% glycerol, and 30 mM HEPES, pH 7.5. The protein concentration was determined with Bradford Protein Assay Kit (Pierce).
# All SPR binding experiments were performed on a CM5 chip (Cytiva) at 25 °C using a Biacore T200 Instrument (GE Healthcare). […]
# [2] = can reach up; cited from earlier work
compound,measurement,setting,value
CN(C)CCCN1c2ccccc2CCc2ccccc21 [imipramine],SPR binding to the immobilized PAS domain,[1],directly binds
same,Plasma levels of imipramine observed in patients,[2],≤ 300 ng/ml and ≤ 1 μM
